In US20220265817A1, “THERAPEUTIC COMPOSITIONS AND METHODS FOR TREATING HEPATITIS B” (priority 2017, published 2022):

Key:
hepatitis B virus (HBV) = assay: Mouse model of HBV (pHBV1.3 hydrodynamic injection), serum HBV DNA quantitative PCR; assay type: in vivo, NOD.CB17-Prkdc^scid/J mice
Protocol: On Day −7, 10 micrograms of the plasmid pHBV1.3 (as per Guidotti, L., et al., Journal of Virology, 1995, 69(10): 6158-6169) was administered to NOD.CB17-Prkdc^scid/J mice via hydrodynamic injection (HDI; rapid 1.6 mL injection into the tail vein). […] As a readout of the anti-HBV effect of various treatments, serum HBV DNA concentration in mice was measured from total extracted DNA using a quantitative PCR assay (primer/probe sequences from Tanaka, Y., et al., Journal of Medical Virology, 2004, 72: 223-229).
Animals were treated with Compound 3 as follows: Starting on Day 0, a 50 mg/kg or 100 mg/kg dosage of Compound 3 was administered orally to animals on a twice-daily frequency for a total of fourteen doses between Days 0 and 7. Compound 3 was dissolved in a co-solvent formulation for administration. Negative control animals were administered either the co-solvent formulation alone, or saline. Animals were treated with lipid nanoparticle (LNP)-encapsulated HBV-targeting siRNAs as follows: On Day 0, an amount of test article equivalent to 0.1 mg/kg siRNA was administered intravenously.
The effect of these treatments was determined by collecting blood on Days 0 (pre-treatment), 4 & 7 and analyzing it for serum HBV DNA content.
Animals were treated with Compound 3 as follows: Starting on Day 0, a 100 mg/kg dosage of Compound 3 was administered orally to animals on a twice-daily frequency for a total of fourteen doses between Days 0 and 7. Compound 3 was dissolved in a co-solvent formulation for administration. Negative control animals were administered either the co-solvent formulation alone, or saline. Animals were treated with ETV as follows: Starting on Day 0, either a 100 ng/kg or a 300 ng/kg dosage of ETV was administered orally to animals on a once-daily frequency for a total of seven doses between Days 0 and 6. ETV was dissolved in DMSO to 2 mg/mL and then diluted in saline for administration.
The effect of these treatments was determined by collecting blood on Days 0 (pre-treatment), 4 & 7 and analyzing it for serum HBV DNA content. Samples with Ct values below the lower limit of quantitation (LLOQ) were set to one-half LLOQ for calculation of group means.

[1] = system: HBV cccDNA-dependent precore RNA in DESHAe82 cells; assay: DESHAe82 / DE19 cell culture system, cccDNA-derived precore RNA by qRT-PCR, MacSynergy II; assay type: cell-based, Hepatitis B virus; details: ETV μM: 0.01, 0.0032, 0.001, 0.0003, 0.0001, 3E−05, 0
Protocol: In vitro combination studies were conducted using a modification of the assay system described in Cai et al (Antimicrobial Agents Chemotherapy, 2012. Vol 56(8):4277-88). A previously developed HepDE19 cell culture system (Guo et al. J. Virology (2007) 81(22): 12472-12484) supports HBV DNA replication and cccDNA formation in a tetracycline (Tet)-regulated manner, and produces a detectable reporter molecule which is dependent upon the production and maintenance of cccDNA.
In the HepDE19 cell culture system, the reporters are the precore RNA and its cognate protein product, the secreted HBV “e antigen” (HBeAg). In HepDE19 cells, precore RNA and HBeAg are only produced from the cccDNA circular template, because the ORF of HBeAg and its 5′ RNA leader are separated between the opposite ends of the integrated viral genome, and only become contiguous with the formation of cccDNA. Although an assay based on the HepDE19 cell culture system is effective for determining activity, the results of high throughput screening may be complicated because the HBeAg ELISA cross reacts with a viral HBeAg homologue, which is the core antigen (HBcAg) expressed largely in a cccDNA-independent fashion in HepDE19 cells. To overcome this complication, an alternative cell culture system (designated herein as DESHAe82 cell culture system and described in PCT/EP/2015/06838) has been developed which includes an in-frame HA epitope tag in the N-terminal coding sequence of HBeAg in the transgene of DESHAe82 cells, without disrupting any cis-element critical for HBV replication, cccDNA transcription, and HBeAg secretion.
A chemiluminescence ELISA assay (CLIA) for the detection of HA-tagged HBeAg with HA antibody serving as capture antibody and […] has been developed, eliminating the contaminating signal from HBcAg. […] In addition, a protocol for quantitative reverse transcription and polymerase chain reaction (qRT-PCR) that is specific for detection of precore RNA in either DE19 or DESHAe82 cells was developed and is also used for the detection of the cccDNA-dependent mRNA (precore RNA) that is translated to produce HBeAg or HA-HBeAg.
To test the compound combinations, DESHAe82 or DE19 cells (as indicated in examples) were plated in 96 well tissue-culture treated microtiter plates in DMEM/F12 medium supplemented with 10% fetal bovine serum+1% penicillin-streptomycin with Tet, and incubated in a humidified incubator at 37° C. and 5% CO2 overnight. […] The two inhibitors were tested both singly as well as in combinations in a checkerboard fashion such that each test concentration of inhibitor A was combined with each test concentration of inhibitor B to determine their combination effects on inhibition of cccDNA formation and expression. Untreated negative control samples (0.5% DMSO or media only) were included on each plate in multiple wells. Following a 9 day-incubation, media was removed and cells were subjected to RNA extraction to measure the cccDNA-dependent precore mRNA level. Total cellular RNAs were extracted using a 96-well format total RNA isolation kit ([…]-NAGEL, Cat. 740466.4) by following the instruction of manufacturer (vacuum manifold processing, two more extra washes of Buffer RA4). RNA samples were eluted in RNAase-free water. Quantitative real-time RT-PCR was performed with a Roche LightCycler480 and RNA Master Hydrolysis probe (Catalog number 04991885001, Roche) using primers and conditions for specific detection of cccDNA-dependent precore RNA. GAPDH mRNA levels were also detected by standard methods and used to normalize the precore RNA levels.

SMILES | Serum HBV DNA, % of individual pre-treatment baseline (Day 0) (hepatitis B virus (HBV); Example 3, Day 4, ETV 100 ng/kg oral once daily) [%] | Serum HBV DNA, % of individual pre-treatment baseline (Day 0) (hepatitis B virus (HBV); Example 3, Day 4, ETV 300 ng/kg oral once daily) [%] | Serum HBV DNA, % of individual pre-treatment baseline (Day 0) (hepatitis B virus (HBV); Example 3, Day 7, ETV 100 ng/kg oral once daily) [%] | Serum HBV DNA, % of individual pre-treatment baseline (Day 0) (hepatitis B virus (HBV); Example 3, Day 7, ETV 300 ng/kg oral once daily) [%] | Serum HBV DNA, % of individual pre-treatment baseline (Day 0) (hepatitis B virus (HBV); Example 2, Day 4, Compound 3 50 mg/kg oral twice daily, mean ± SEM) [%] | Serum HBV DNA, % of individual pre-treatment baseline (Day 0) (hepatitis B virus (HBV); Example 2, Day 4, Compound 3 100 mg/kg oral twice daily) [%] | Serum HBV DNA, % of individual pre-treatment baseline (Day 0) (hepatitis B virus (HBV); Example 2, Day 7, Compound 3 50 mg/kg oral twice daily) [%] | Serum HBV DNA, % of individual pre-treatment baseline (Day 0) (hepatitis B virus (HBV); Example 2, Day 7, Compound 3 100 mg/kg oral twice daily) [%] | Serum HBV DNA, % of individual pre-treatment baseline (Day 0) (hepatitis B virus (HBV); Example 3, Day 4, Compound 3 100 mg/kg oral twice daily, mean ± SEM) [%] | Serum HBV DNA, % of individual pre-treatment baseline (Day 0) (hepatitis B virus (HBV); Example 3, Day 7, Compound 3 100 mg/kg oral twice daily) [%] | Average percent inhibition versus negative control (precore RNA) ([1]; Compound 3 0.032 μM) [%] | Average percent inhibition versus negative control (precore RNA) ([1]; Compound 3 0.100 μM) [%] | Average percent inhibition versus negative control (precore RNA) ([1]; Compound 3 0.317 μM) [%] | Average percent inhibition versus negative control (precore RNA) ([1]; Compound 3 1.001 μM) [%] | Average percent inhibition versus negative control (precore RNA) ([1]; Compound 3 3.165 μM) [%] | Average percent inhibition versus negative control (precore RNA) ([1]; Compound 3 10 μM) [%]
C=C1[C@H](CO)[C@@H](O)C[C@@H]1n1cnc2c(=O)[nH]c(N)nc21 [Entecavir] | 21 ± 5 | 1.6 ± 0.3 | 3.5 ± 0.7 | 0.88 ± 0.31 | – | – | – | – | – | – | – | – | – | – | – | –
CC[C@@H](C)NS(=O)(=O)c1ccc(F)c(C(=O)Nc2ccc(F)c(F)c2)c1 [Compound 3] | – | – | – | – | 13 ± 4 | 8.6 ± 1.5 | 33 ± 9 | 12 ± 5 | 9.3 ± 2.5 | 1.2 ± 0.3 | −26.280 | −86.920 | 36.240 | 67.120 | 90.600 | 84.340
